Measured values published in PMC8457121, “From Kinase Inhibitors to Multitarget Ligands as Powerful Drug Leads for Alzheimer's Disease using Protein‐Templated Synthesis” (Angewandte Chemie (International Ed. in English), 2021).

How the values were obtained:
PAMPA-BBB test = type: in vitro ADME; settings: PBS pH 7.4 with 5% DMSO
Protocol: CNS penetration: in vitro PAMPA-BBB test. Prediction of the brain penetration was evaluated using a parallel artificial membrane permeability assay (PAMPA).1
Nine quality control compounds (mentioned below) of know BBB permeability
were included in each experiment to validate the analysis set.2 Commercial drugs
dissolved in 250 µL of DMSO (Sigma-Aldrich). 25 µL of these compound stock
solutions were taken and 225 µL of DMSO and 4750 µL of PBS pH 7.4 buffer
were added to reach 5% of DMSO concentration in the experiment and a final
compound concentration in the range of 0.2 to 1.1 mM. Compounds to be
determined their ability to pass the brain barrier (0.5-1 mg) were dissolved in 250
µL of DMSO and 4750 µL of PBS pH 7.4 was carefully added to afford a final
compound concentration in the range of 0.2 to 1.1 mM. Solutions were filtered
using filter PDVF membrane units (diameter 30 mm, pore size 0.45 μm, Symta).
10 µL of each solution were taken and diluted 10-fold with PBS/DMSO (95/5) for
HPLC-MS analysis. The acceptor 96-well plate (Multiscreen®, catalog no.
MAMCS9610, Millipore) was filled with 180 µL of PBS/DMSO (95/5). The donor
96-well plate (Multiscreen® IP Sterile Plate PDVF membrane, pore size is 0.45
M, catalog no. MAIPS4510, Millipore) was coated with 4 µL 20 mg·mL-1 of
for 5 min and then 180 µL of each compound solution was added. Then the donor
plate was put on the acceptor plate and kept for 2.5 h at room temperature. After
incubation, samples were collected from the acceptor plate and diluted 10-fold
with PBS/DMSO (95/5) for HPLC-MS analysis and compared to HPLC-MS of
initial solutions. Absorbance peak of each compound was determined by MS
detection and was used to calculate the concentration of compounds and
Every sample was analysed in two independent
runs. HPLC-MS was performed using a HPLC-MS equipment from Thermo
Fisher coupled to a Finnigan TM LXQ TM detector. Each compound was
analysed using a Sunfire column C18, 3.5 μm (50 mm x 4.6 mm) and acetonitrile
and Milli-Q water (with 0.1% formic acid) as mobile phase. The standard gradient

BACE1 = BACE1 (Homo sapiens, UniProt P56817); test: In situ click chemistry with BACE1 as template (LC/MS-SIM); settings: BACE1 0.5 μM, reagents 100 μM, 24 h, room temperature, sodium acetate pH 4.5
BACE1, sequence (P56817 46-501): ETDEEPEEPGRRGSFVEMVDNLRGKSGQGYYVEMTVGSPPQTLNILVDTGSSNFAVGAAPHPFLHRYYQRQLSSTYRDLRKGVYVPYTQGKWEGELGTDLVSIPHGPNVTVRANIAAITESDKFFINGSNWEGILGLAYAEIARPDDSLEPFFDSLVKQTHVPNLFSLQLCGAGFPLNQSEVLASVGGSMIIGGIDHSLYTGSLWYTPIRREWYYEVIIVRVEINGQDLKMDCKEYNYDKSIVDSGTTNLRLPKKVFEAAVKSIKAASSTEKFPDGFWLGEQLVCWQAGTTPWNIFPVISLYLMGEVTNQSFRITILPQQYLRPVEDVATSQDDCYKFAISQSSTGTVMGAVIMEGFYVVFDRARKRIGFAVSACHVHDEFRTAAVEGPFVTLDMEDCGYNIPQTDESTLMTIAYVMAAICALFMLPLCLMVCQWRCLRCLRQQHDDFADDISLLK
Protocol: confirmed by molecular weight. Control experiments in the absence of BACE1 were set up every time the reactions were performed. Experiment with the presence of BSA (1 mg mL−1) instead of the BACE1 enzyme was performed for […]
LRRK2 inhibition enzymatic assay. The LRRK2 inhibitors were evaluated by the ThermoFisher company under the following Adapta Assay. The assay itself can be divided into two phases: a kinase reaction phase, and an ADP detection phase. In the kinase reaction phase, all components required for the kinase reaction are added to the well, and the reaction is allowed to incubate for 60 minutes. After the reaction, a detection solution consisting of a europium labeled anti-ADP antibody, an Alexa Fluor™ 647 labeled ADP tracer, and EDTA (to stop the kinase reaction) is added to the assay well. ADP formed by the kinase reaction (in the absence of an inhibitor) will displace the Alexa Fluor 647 labeled ADP tracer from the antibody, resulting in a decrease in the TR-FRET signal. In the presence of an inhibitor, the amount of ADP formed by the kinase reaction is reduced, and the resulting intact antibodytracer interaction results in a high TR-FRET signal. ADP formation is determined by calculating the emission ratio from […]
The 2X LRRK2 / ERM (LRRKtide) mixture is prepared in 50 mM Tris pH 8.5, […]
Reaction consists of 3.75 - 70 ng LRRK2 and 200 μM ERM (LRRKtide) in 25 mM […]
NaN3. […]

- Solubility in the conditions of the PAMPA experiment (PAMPA-BBB test): insoluble
- Triazole formation from building blocks in presence of BACE1 (BACE1): observed
SMILES: O=C(Nc1nc2ccccc2s1)c1ccc(Cn2cc(COc3ccc(C(=O)Nc4nc5ccccc5s4)cc3)nn2)cc1 [compound 8]
